Data taken from patent US20260207616A1, “COMBINATION THERAPIES FOR TREATMENT OF HEARING DISORDERS” (GATEWAY BIOTECHNOLOGY, INC., priority 2023, published 2026).

Tested on: tinnitus positive mice
Test: go/no-go trials, sound-based avoidance detection (SBAD) in noise-induced tinnitus mice
Format: in vivo
Settings: intraperitoneal injection; for dosage reached before the agent alone was effective in treating the animals tinnitus: single agent
Experimental: With reference to FIGS. 1A-1D, single drug treatment of tinnitus is evaluated using the go/no-go methodology further elaborated upon in Example 4. With reference to FIGS. 2A-2B, multi drug treatment of tinnitus is evaluated using the go/no-go methodology further elaborated upon in Example 4. […] Using a shuttle box divided into two compartments, mice were trained to cross from side to side with sound cues in the “Go” trials and remain still in the absence of sound in the “No-Go” trials for 15 days. […] The sound cues were randomly played as white noise or narrow-band noise at 8,10,12.5,16, and 29 kHz with sound intensities randomly at 75, 80, or 85 dB. […] Additionally, a hurdle was added on training 11 to reinforce the training. After the 15th training day, mice were tested for 3 days to obtain a baseline score to be compared after noise exposure, as well as retraining for 3 days. Following the successful completion of training so that mice reached a high percentage of success in the trials, the mice were exposed to a noise-induced trauma for tinnitus over a two day period. To ensure that the mice still have their hearing, one ear was protected with an ear plug, while the other ear was exposed to the noise. The mice were placed in a sound booth where they were exposed to 120 dB broadband noise at 4-25 kHz for two hours. Following the noise exposure, the mice were housed for one month, and then tested to see if they have developed tinnitus. In these testing periods, the mice were tested for three days in the shuttle boxes, where they underwent the Go and No-Go trials, however in the No-Go trials the mice were not shocked, as it is expected that mice with tinnitus would cross compartments in the absence of a sound cue. The mice were continued to be shocked in the Go trials in order to ensure that they have retained their hearing and can hear the sound cues. […] To insure there is a significant difference in the No-Go trial scores, chi-square tests were completed comparing the post-noise exposure tests to the baseline tests. However, if tinnitus is not present in the mice, tests were done after waiting one more month, and another if needed. […] The Go and No-Go scores for the tests were compared using chi-square tests in Social Science Statistics and JASP. The chi-square tests were used first to determine whether mice were tinnitus positive by comparing the No-Go baseline scores pre-noise exposure to the No-Go post-noise exposure scores, with a significant difference (p-value<0.05) in at least 2 of the tests indicating a tinnitus positive mouse. Following this conclusion, the mice were tested accordingly to determine if their No-Go scores could be improved by different drug doses and combinations. […] The No-Go scores at 3 months post-noise exposure were compared to baselines to assess for tinnitus. Mice had significant decreases on all 3 days of testing. This indicates these mice had tinnitus. One or more mice is a control animal. In looking at the Go scores for the tinnitus animals when tested with the specified drugs, mice had significant decreases in their scores when. […] In contrast, a lack of change in the No-Go scores indicates the first and/or second agent was not effective in treating the animal's tinnitus, and decrease in the score may indicate that the animal's tinnitus was worsened.

Structure (SMILES): NC(=O)N1c2ccccc2C=Cc2ccccc21 [CBZ, carbamazepine]
- correct percentage result in the no-go trial (CBZ 5 mg/kg, within a margin of error of the saline dosed mice): less than 70%
- correct percentage result in the no-go trial (CBZ 8 mg/kg): less than 80%

Structure (SMILES): COc1ccc2cc1Oc1ccc(cc1)C[C@H]1c3cc(c(OC)cc3CCN1C)Oc1c(OC)c(OC)cc3c1[C@H](C2)N(C)CC3 [TET, tetrandrine]
- correct percentage result in the no-go trial (TET 60 mg/kg): ~90%
- correct percentage result in the no-go trial (TET 90 mg/kg): ~95%
- dosage reached before the agent alone was effective in treating the animals tinnitus: about 30 mg/kg

Structure (SMILES): CCOC(=O)C1=C(COCCN)NC(C)=C(C(=O)OC)C1c1ccccc1Cl (centres unmarked) [AML, amlodipine]
- correct percentage result in the no-go trial (AML 5 mg/kg): ~90%
- correct percentage result in the no-go trial (AML 8 mg/kg): ~95%

Structure (SMILES): CCC1(C)CC(=O)NC1=O (centres unmarked) [ESM, ethosuximide]
- correct percentage result in the no-go trial (ESM 300 mg/kg): ~70%

Structure (SMILES): COCCOC(=O)C1=C(C)NC(C)=C(C(=O)OC(C)C)C1c1cccc([N+](=O)[O-])c1 (centres unmarked) [NMDP, nimodipine]
- correct percentage result in the no-go trial (NMDP 30 mg/kg): ~95%
- correct percentage result in the no-go trial (NMDP 50 mg/kg): ~95%
- dosage reached before the agent alone was effective in treating the animals tinnitus: about 30 mg/kg
